Where two headings read alike, the source gives them in different places.
Columns and labels:
SSAO = target: T1, SSAO (Homo sapiens, UniProt Q16853); experiment: Biochemical activity, SSAO
T1 sequence (Q16853 1-763): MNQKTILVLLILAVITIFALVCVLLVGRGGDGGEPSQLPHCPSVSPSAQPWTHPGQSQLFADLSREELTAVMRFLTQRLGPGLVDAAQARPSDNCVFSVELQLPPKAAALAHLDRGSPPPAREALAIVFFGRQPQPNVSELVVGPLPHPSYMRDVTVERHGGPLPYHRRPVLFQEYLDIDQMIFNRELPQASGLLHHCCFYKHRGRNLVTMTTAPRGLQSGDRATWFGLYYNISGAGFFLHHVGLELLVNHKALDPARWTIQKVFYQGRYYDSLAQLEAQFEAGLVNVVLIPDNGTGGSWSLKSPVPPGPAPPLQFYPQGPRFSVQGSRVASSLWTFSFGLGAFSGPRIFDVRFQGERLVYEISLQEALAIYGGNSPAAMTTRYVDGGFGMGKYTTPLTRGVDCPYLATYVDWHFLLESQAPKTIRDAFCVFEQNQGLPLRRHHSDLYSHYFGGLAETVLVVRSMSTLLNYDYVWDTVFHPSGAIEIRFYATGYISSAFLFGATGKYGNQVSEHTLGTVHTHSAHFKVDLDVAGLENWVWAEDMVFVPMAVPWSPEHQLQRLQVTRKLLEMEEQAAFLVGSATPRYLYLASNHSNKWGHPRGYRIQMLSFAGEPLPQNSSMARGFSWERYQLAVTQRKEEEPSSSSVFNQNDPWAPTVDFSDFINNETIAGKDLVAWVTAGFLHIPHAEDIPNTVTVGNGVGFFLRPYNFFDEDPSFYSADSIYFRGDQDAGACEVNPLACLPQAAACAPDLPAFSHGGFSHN

MAO-A = target: T2, MAO-A (Homo sapiens, UniProt P21397); experiment: Biochemical activity, MAO-A
T2 sequence (P21397 1-527): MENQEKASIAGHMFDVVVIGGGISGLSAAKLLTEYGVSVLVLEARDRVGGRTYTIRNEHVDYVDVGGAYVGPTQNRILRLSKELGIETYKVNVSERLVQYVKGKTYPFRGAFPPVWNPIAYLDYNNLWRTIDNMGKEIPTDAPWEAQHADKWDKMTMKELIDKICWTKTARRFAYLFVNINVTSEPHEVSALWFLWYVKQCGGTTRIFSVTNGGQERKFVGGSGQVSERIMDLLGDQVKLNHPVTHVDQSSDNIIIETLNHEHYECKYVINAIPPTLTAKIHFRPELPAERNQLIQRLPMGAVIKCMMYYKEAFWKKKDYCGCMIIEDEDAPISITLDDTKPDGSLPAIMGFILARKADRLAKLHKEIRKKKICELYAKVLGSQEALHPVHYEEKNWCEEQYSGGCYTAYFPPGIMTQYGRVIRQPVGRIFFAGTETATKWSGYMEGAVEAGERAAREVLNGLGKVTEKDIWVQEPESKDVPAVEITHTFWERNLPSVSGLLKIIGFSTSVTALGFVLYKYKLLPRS

[1] = Multiple once daily dose study: plasma PK and safety; assay type: in vivo, human
Experimental: 3 groups of 8 healthy participants were randomized to receive multiple once daily (QD) doses of Compound 2 or matching placebo in a 3:1 ratio for 7 days (1 mg and 4 mg) or 14 days (10 mg). Plasma levels of Compound 2 and PD biomarkers (plasma amine oxidase activity and methylamine levels) were determined at pre-dose and various timepoints post-dose. Safety was assessed for up to 14 days after last dose.

[2] = Clinical study, First Study (14 days, healthy volunteers); assay type: in vivo; conditions: healthy human volunteers, oral daily 5, 75, 200 or 400 mg for 14 days
[3] = Tissue distribution after 2 mg/kg intravenous infusion; assay type: in vivo; conditions: SD rats, with 100 μM rifampin
Experimental: The tested compounds were administered to SD rats (n=3 per compound) by way of 30 minute intravenous infusion at 2 mg/kg. Blood, liver, kidney, and lung tissue samples were collected from the rats to determine a tissue/plasma ratio.

mouse model of NASH = experiment: Mouse model of NASH (high fat diet + CCl4); assay type: in vivo, C57/BL6J mice
Experimental: Hematoxylin & Eosin (H&E) and Sirius Red histological staining of liver tissue was used to quantitate NAFLD activity score (NAS), steatosis, ballooning, inflammation and fibrosis. […] Gene expression of RNA was analyzed by RT-qPCR and RNAseq.
NAS is calculated based upon liver steatosis, inflammation, and ballooning and was determined by analysis of liver tissue histology using H&E stain. […] Hepatocellular ballooning is a form of liver cell injury associated with cell swelling and is also measured by H&E stained liver sections. The ballooning score is calculated as follows: 0-no hepatocyte ballooning; 1-few ballooning hepatocytes; 2-many hepatocytes with prominent ballooning.
Liver fibrosis was quantified by histological analysis of the percentage of Sirius Red-positive liver sections. […] Liver triglycerides were measured from liver tissue using a biochemical analyzer (Hitachi-700).

mouse hepatocytes = experiment: In vitro metabolic stability in cryopreserved hepatocytes (mouse); assay type: in vitro ADME
Experimental: (§1) In vitro half-life values were determined and scaled to predict hepatic clearance (CLpred) and hepatic extraction using the well-stirred liver model with no correction for plasma protein as described in Obach et al., The Prediction of Human Pharmacokinetic Parameters from Preclinical and In Vitro Metabolism Data, J. of Pharmacology and Experimental Therapeutics, vol. 283, no. 1, pp. 46-58 (1997).

human hepatocytes = experiment: In vitro metabolic stability in cryopreserved hepatocytes (human); assay type: in vitro ADME
Experimental: as §1

[4] = PK/PD profile, 1 mg/kg oral for 7 consecutive days; assay type: in vivo; conditions: cynomolgus monkeys; for Cmax / Tmax / AUC(0-t): cynomolgus monkey, plasma, po, 1 mg/kg, oral 1 mg/kg daily; for AUC(0-t): read-out: AUC0-24
[5] = NASH mice, 10, 30, 100 mg/kg, vs untreated NASH mice

## COC1CCN(c2ncc(OC/C(=C/F)CN)cn2)CC1 [Compound 2]
SSAO
  IC50: 6.5 nM
MAO-A
  IC50: > 50000 nM
[1]; Day 1, QD 1, 4, 10 mg
  plasma PK exposure increases between dose groups: greater than dose proportional
[1]; QD 1, 4, 10 mg
  half-life versus dose: increased with dose
[1]; each dose level
  accumulation after multiple QD doses: significant accumulation
[1]; healthy participants, QD 1 mg and 4 mg for 7 days or 10 mg for 14 days
  adverse events or laboratory abnormalities: No clinically relevant adverse events or laboratory abnormalities were reported
[1]; highest dose cohort (10 mg QD)
  time to steady state: 7 days
[1]; up to 10 mg QD for 14 days
  safety and tolerability: safe and well tolerated

## Cn1cc(C(=O)O)c2ccc(N3CCC(OCc4c(-c5c(Cl)cccc5Cl)noc4C4CC4)CC3)cc21 [Compound 1]
[2]
  incidences of pruritus: no incidences of pruritus were observed
[3]
  change in distribution to the liver on co-administration with rifampin: does not result in a significant change
Mouse model of NASH; NASH mice liver, 30 mg/kg
  CYP7A1 expression (CPM) Relative to Vehicle: 0.02
  CYP8B1 expression (CPM) Relative to Vehicle: 0.007
Mouse model of NASH; NASH mice, 100 mg/kg
  liver triglycerides: statistically significant reduced triglyceride levels
  serum triglyceride concentration: statically significant reduction
Mouse model of NASH; NASH mice, 10, 30, 100 mg/kg
  serum ALT level: reduced
  serum AST level: reduced
Mouse model of NASH; [5]
  ballooning (score): significantly reduced
  inflammation (score): significantly reduced
  steatosis (score): significantly reduced
Mouse model of NASH; NASH mice, 10, 30, and 100 mg/kg
  serum total cholesterol level: statistically significant reduction
Mouse model of NASH; NASH mice, 10, 30, or 100 mg/kg daily oral, 28 days, vs untreated NASH mice
  NAFLD Activity Score (NAS): significantly lower NAS score
Mouse model of NASH; NASH mice, 10, 30, or 100 mg/kg, vs control NASH mice
  collagen, type 1, alpha 1 expression in the liver: decreased
Mouse model of NASH; NASH mice, 10, 30 or 100 mg/kg, vs untreated NASH control
  Liver fibrosis (Sirius Red-positive area): statistically significant reduced fibrosis
Mouse hepatocytes
  Hepatic Extraction: 80.7 ± 1.02%
Mouse hepatocytes; well-stirred liver model
  In vitro Metabolic CLpred: 72.7 ± 1 mL/min/kg
Human hepatocytes
  Hepatic Extraction: 67.0 ± 1.73%
Human hepatocytes; well-stirred liver model
  In vitro Metabolic CLpred: 13.8 ± 3.67 mL/min/kg
[4]; Day 1
  Cmax: 257 ± 124 ng/mL
  Tmax: 1.83 ± 1.17 h
  AUC(0-t): 1000 ± 419 ng·h/mL
[4]; Day 7
  Cmax: 221 ± 121 ng/mL
  Tmax: 1.25 ± 0.61 h
  AUC(0-t): 858 ± 425 ng·h/mL
[4]; 1 mg/kg oral, 7 consecutive days
  suppression of the pharmacodynamics biomarker 7AC4: sustained suppression

— US20210379040A1, “COMBINATION TREATMENT OF LIVER DISORDERS” (Terns Pharmaceuticals, Inc., priority 2020, published 2021)
